In the assay the test system is beta-TC6 cells. As to the kind of experiment: Insulin HTRF assay (relative activity Ar) in beta-TC6 cells. The class given is cell-based, mouse. The note with it: Mus musculus, Beta-TC6, 4 h, insulin HTRF, supernatant of beta-TC6 cells, incubation with test compound at 37°C for 2, 3, 4h; read-out: Ar (relative activity). The method, boiled down: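 beta-TC6 cells (15k/well, seeded 24 or 48 h) washed, then exposed to compound in induction buffer (0.5% DMSO final) for 2, 3 or 4 h at 37°C.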
As for `COC(=O)c1ccc(Nc2cc3[nH]c(-c4ccccn4)cc3cn2)cc1` [Compound 67, methyl 4-[[2-(2-pyridyl)-1H-pyrrolo[3,2-c]pyridin-6-yl]amino]benzoate], the Emax was 30 to 50%. The result for `COc1cc(Nc2cc3c(cn2)nc(Cc2ccccc2)n3C)cc(OC)c1OC` [Compound 699, 2-benzyl-1-methyl-N-(3,4,5-trimethoxyphenyl)imidazo[4,5-c]pyridin-6-amine] reads 50 to 100%; that for `CN(C)c1cccc(Nc2cc3[nH]c(-c4cn[nH]c4)cc3cn2)c1` [Compound 112, N1,N1-dimethyl-N3-[2-(1H-pyrazol-4-yl)-1H-pyrrolo[3,2-c]pyridin-6-yl]benzene-1,3-diamine], 50 to 100%; that for `COc1ccc(OC)c(CCNc2nc3cnc(-c4ccncc4)cc3n2C)c1` [Compound 591, N-[2-(2,5-dimethoxyphenyl)ethyl]-1-methyl-6-(4-pyridyl)imidazo[4,5-c]pyridin-2-amine], 30 to 50%. The result for `c1ccc(-c2cc3cnc(Nc4ccncc4)cc3[nH]2)cc1` [Compound 178, 2-phenyl-N-(4-pyridyl)-1H-pyrrolo[3,2-c]pyridin-6-amine] reads 30 to 50%.

For `Cn1c(Nc2ccccc2)nc2cnc(Nc3ccccc3)cc21` [Compound 634, 1-methyl-N2,N6-diphenyl-imidazo[4,5-c]pyridine-2,6-diamine], the Emax lay within 50 to 100%. Then `Cc1cccc(Nc2cc3c(cn2)cc(-c2cccnc2)n3C)c1` [Compound 90, 1-methyl-N-(m-tolyl)-2-(3-pyridyl)pyrrolo[3,2-c]pyridin-6-amine], with 30 to 50%; and `CNc1nc2cnc(Nc3ccc(OC)cc3)cc2n1-c1cccc(F)c1` [Compound 685, 1-(3-fluorophenyl)-N6-(4-methoxyphenyl)-N2-methyl-imidazo[4,5-c]pyridine-2,6-diamine], with 50 to 100%.

For `CN(C)c1ccc(-c2cc3c(Nc4ccncn4)nccc3n2C)cc1` [Compound 229, 2-(4-dimethylaminophenyl)-1-methyl-N-pyrimidin-4-yl-pyrrolo[3,2-c]pyridin-4-amine], the Emax was more than 100%. Then `Cn1c(NCC2CCCO2)nc2cnc(Nc3cccc(OC(F)(F)F)c3)cc21` (stereo not shown) [Compound 755, 1-methyl-N2-(tetrahydrofuran-2-ylmethyl)-N6-[3-(trifluoromethoxy)phenyl]imidazo[4,5-c]pyridine-2,6-diamine], with 0 to 30%. The result for `COc1ccc(-c2nc3c(Nc4cccc(N(C)C)c4)nccc3[nH]2)cc1OC` [Compound 343, N1-[2-(3,4-dimethoxyphenyl)-1H-imidazo[4,5-c]pyridin-4-yl]-N3,N3-dimethyl-benzene-1,3-diamine] reads 50 to 100%. The result for `CN(C)C(=O)c1ccc(-c2cc3cnc(Nc4cccc(Oc5ccccc5)c4)cc3[nH]2)cc1` [Compound 35, N,N-dimethyl-4-[6-(3-phenoxyanilino)-1H-pyrrolo[3,2-c]pyridin-2-yl]benzamide] reads 0 to 30%; that for `CNc1nc2cnc(Nc3ccc(OC)cc3C)cc2n1CC1CC1` [Compound 760, 1-(cyclopropylmethyl)-N6-(4-methoxy-2-methyl-phenyl)-N2-methyl-imidazo[4,5-c]pyridine-2,6-diamine], 0 to 30%; that for `Cn1c(-c2cccc(F)c2)nc2cnc(Nc3ccc4c(c3)OCO4)cc21` [Compound 714, N-(1,3-benzodioxol-5-yl)-2-(3-fluorophenyl)-1-methyl-imidazo[4,5-c]pyridin-6-amine], 50 to 100%. For `Cn1c(NCc2ccccc2F)nc2cnc(-c3cccs3)cc21` [Compound 658, N-[(2-fluorophenyl)methyl]-1-methyl-6-(2-thienyl)imidazo[4,5-c]pyridin-2-amine], the Emax was in the range of 50 to 100%. Consider `COCCNc1nc2cnc(-c3ccccc3C)cc2n1C` [Compound 770, N-(2-methoxyethyl)-1-methyl-6-(o-tolyl)imidazo[4,5-c]pyridin-2-amine], for which the Emax is 0 to 30%.

Values taken from patent EP2818472A1, “Imidazo[4,5-c]pyridine and pyrrolo[3,2-c]pyridine compounds as G-protein-coupled receptor kinase 5 (GRK5) modulators” (Max-Planck-Gesellschaft zur Förderung der Wissenschaften …, priority 2013, dated 2014).
